The target in data set [1] is T1, Dual specificity protein kinase CLK1 (Homo sapiens, UniProt P49759). The data set can be described thus: Inhibition of human CLK1 using GRSRSRSRSRSRSRS as substrate incubated for 15 mins in presence of ATP by gamma32P-ATP based analysis.
Target sequence in this assay (P49759 whole entry): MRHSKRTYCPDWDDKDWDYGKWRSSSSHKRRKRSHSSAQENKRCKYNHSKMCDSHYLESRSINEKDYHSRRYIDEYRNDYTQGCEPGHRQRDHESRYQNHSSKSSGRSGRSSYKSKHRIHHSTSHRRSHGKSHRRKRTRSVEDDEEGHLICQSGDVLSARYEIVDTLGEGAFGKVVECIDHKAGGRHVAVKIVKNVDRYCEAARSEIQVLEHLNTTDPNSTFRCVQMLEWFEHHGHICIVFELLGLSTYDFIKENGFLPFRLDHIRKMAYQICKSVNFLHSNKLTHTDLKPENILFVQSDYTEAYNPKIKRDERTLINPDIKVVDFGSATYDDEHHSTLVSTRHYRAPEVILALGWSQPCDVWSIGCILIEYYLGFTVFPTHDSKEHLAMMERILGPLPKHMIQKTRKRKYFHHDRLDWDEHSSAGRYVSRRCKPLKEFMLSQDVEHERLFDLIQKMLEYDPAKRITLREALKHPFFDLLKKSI
In data set [2] the target is T1, Dual specificity protein kinase CLK1. The note with it: dose 100.0 nM, time 15.0 min.
Target sequence in this assay (P49759 whole entry, looked up): as the sequence (P49759 whole entry) above
The subject of data set [3] is NHDF. The data set can be described thus: Cytotoxicity against HDF cells assessed as inhibition of cell growth at 15 uM incubated for 2 days by WST-1 analysis. Type of data set: toxicity, cell-based. The note with it: human, 48 h, time 2 day. For orientation: Tetrazolium dyes change colour on reduction, which living cells bring about.
Data set [4] concerns T-24. The data set is described as follows: Antiproliferative activity against human T24 cells assessed as cell growth inhibition incubated for 3 days by MTT assay. The following applies: T-24, 72 h, time 3 day. It counts as functional.
A short description of data set [5]: Metabolic stability in human liver microsomes assessed as half life. Type of data set: ADME, Microsome. On the technique in general: Microsomes from liver hold many membrane-bound enzymes, among them those of drug oxidation.
Data set [6] is described as follows: Selectivity index, ratio of inhibition of DYRK1A (unknown origin) to inhibition of CLK1 (unknown origin).
A short description of data set [7]: Metabolic stability in pooled human liver S9 fraction assessed as half life at 0.3 uM incubated for 120 mins in presence of NADPH regenerating system by LC-MS/MS analysis. Type of data set: ADME, subcellular.
Data set [8] can be described thus: Cytotoxicity against HDF cells assessed as cell growth inhibition at 15 uM incubated for 2 days by WST-1 analysis relative to control. It counts as toxicity, cell-based. The following applies: human, HDF cells (NHDF, normal human dermal fibroblasts), time 2 day, read-out: GI.
Data set [9] concerns the target Dual specificity protein kinase CLK4 (Homo sapiens, UniProt Q9HAZ1). The data set can be described thus: Inhibition of CLK4 (unknown origin) in presence of ATP.
Data set [10] addresses Dual specificity tyrosine-phosphorylation-regulated kinase 1A (Homo sapiens, UniProt Q13627). The data set is described as follows: Inhibition of DYRK1A (unknown origin) in presence of ATP.
A short description of data set [11]: Selectivity index, ratio of IC50 for inhibition of CLK2 (unknown origin) to IC50 for inhibition of CLK1 (unknown origin).
Data set [12] relates to T-24. The data set can be described thus: Antiproliferative activity against human T24 cells assessed as cell growth inhibition. Type of data set: functional.

Some results are limits rather than exact numbers.

Chain of Dual specificity protein kinase CLK4 (Q9HAZ1 whole entry): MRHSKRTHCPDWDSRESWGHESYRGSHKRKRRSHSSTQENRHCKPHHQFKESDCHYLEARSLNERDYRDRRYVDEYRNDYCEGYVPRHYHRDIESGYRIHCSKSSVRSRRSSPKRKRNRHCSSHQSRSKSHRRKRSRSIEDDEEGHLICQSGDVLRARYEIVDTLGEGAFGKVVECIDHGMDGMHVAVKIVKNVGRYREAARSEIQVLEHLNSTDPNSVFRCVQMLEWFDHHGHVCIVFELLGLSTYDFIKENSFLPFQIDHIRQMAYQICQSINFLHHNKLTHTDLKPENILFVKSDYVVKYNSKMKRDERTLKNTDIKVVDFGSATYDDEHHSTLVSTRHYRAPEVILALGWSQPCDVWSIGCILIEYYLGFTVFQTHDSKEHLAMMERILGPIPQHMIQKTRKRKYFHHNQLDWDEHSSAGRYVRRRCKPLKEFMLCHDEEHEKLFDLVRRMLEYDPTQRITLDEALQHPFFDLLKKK

With `COc1ccc2sc(C(=O)N(C)N(C)c3cc(Cl)cc(Cl)c3)cc2c1`, in data set [1], the IC50 (in general, the point on the concentration scale where inhibition reaches its midpoint) was 63.5 nM. In data set [2], this compound displayed an inhibition of 66.3%.

In the case of `COc1ccc2sc(C(=O)NNc3ccc(C#N)cc3)cc2c1`, in [3], the Activity result is listed as “Non-Toxic”. For the same compound, the GI50 – broadly, the concentration giving 50% growth inhibition – in [4] is above 15000 nM. The IC50 in data set [1] is above 100 nM. The inhibition in data set [2] came out at 18.4%.

Turning to `COc1ccc2sc(C(=O)NNc3cccc(C#N)c3)cc2c1`, the Activity entry in data set [3] was “Non-Toxic”. The GI50 in [4] was found to be 10000 nM. Further, the IC50 in [1] was determined as 5.4 nM. Further, the inhibition in data set [2] worked out at 73.1%.

With `COc1ccc2sc(C(=O)NNc3ccc(F)cc3F)cc2c1`, the inhibition in data set [2] was determined as 4.1%.

In the case of `COc1ccc2sc(C(=O)NC(=O)c3cc(Cl)ccc3OC)cc2c1`, in data set [5], the half-life – broadly, the time needed for the level to fall by half in the phase considered – turned out to be 10 min. For the same compound, in data set [6], the Selectivity Index is 60. In addition, the half-life at 0.3 µM in data set [7] was 10.2 min.

With `COc1ccc2sc(C(=O)NNc3cccc(F)c3)cc2c1`, the IC50 in [1] was 66.5 nM. The compound also displayed an inhibition in [2] of 70.5%.

Consider `C[C@@H](c1ccc(F)cc1)n1nnc2cnc3ccc(-c4ccc5ocnc5c4)cc3c21`, for which, in [6], the Selectivity Index was 69.

Consider `COc1ccc2sc(C(=O)NNc3ccc(C(F)(F)F)cc3)cc2c1`, for which the inhibition in data set [2] was 0%.

In the case of `COc1ccc2sc(C(=O)N(C)N(C)c3cccc(N)c3)cc2c1`, in [1], the IC50 is 97.4 nM. For the same compound, the inhibition in [2] worked out at 51.2%.

`COc1ccc2sc(C(=O)NNc3ncccc3Cl)cc2c1`: the inhibition in data set [2] came to 0%.

Compound `COc1ccc2sc(C(=O)NNc3cc(C(F)(F)F)cc(C(F)(F)F)c3)cc2c1` had an inhibition in [2] of 22.3%.

The compound `COc1ccc2sc(C(=O)N(C)N(C)c3cccc([N+](=O)[O-])c3)cc2c1` displayed an inhibition in data set [2] of 47.8%.

In turn, `COc1ccc2sc(C(=O)NNc3ccc(F)cc3)cc2c1` gave an inhibition in [2] of 5%.

Turning to `COc1ccc2sc(C(=O)N(C)N(C)c3cccc(C#N)c3)cc2c1`, in data set [1], the IC50 was 32.1 nM. In data set [2], this compound yielded an inhibition of 62.7%.

Compound `COc1ccc2sc(C(=O)NNc3ccc(C)c(Cl)c3)cc2c1` yielded an inhibition in data set [2] of 25.9%.

Consider `COc1ccc2sc(C(=O)N(C)Cc3cccc(F)c3)cc2c1`, for which the half-life in data set [5] stood at 10 min. Besides, in data set [6], the Selectivity Index was determined as 48.6. In addition, the half-life at 0.3 µM in [7] came to 17.2 min.

As to `COc1ccc2sc(C(=O)NNc3cccc(Br)c3)cc2c1`, the IC50 in data set [1] was 37.7 nM. In data set [2], the inhibition turned out to be 84.6%.

Take `COc1cccc(NNC(=O)c2cc3cc(OC)ccc3s2)c1`: the Activity result in data set [3] is given as “Non-Toxic”. Moreover, in data set [4], the GI50 is above 15000 nM. Further, the IC50 in [1] amounted to 3.7 nM. This compound registered an inhibition in data set [2] of 86.8%.

As for `COc1ccc2sc(C(=O)NNc3ccc(C(C)C)cc3)cc2c1`, the inhibition in data set [2] was determined as 3.8%.

Take `COc1ccc2sc(C(=O)NNc3cccc(C)c3)cc2c1`: the inhibition in data set [2] is 29.9%.

`COc1ccc2sc(C(=O)NNc3ccc(F)c(Cl)c3)cc2c1` displayed an inhibition in [2] of 27.9%.

In the case of `COc1ccc2sc(C(=O)NNc3ccc(I)cc3)cc2c1`, the inhibition in data set [2] is 16.9%.

For the compound `COc1ccc2sc(C(=O)NNc3cccc([N+](=O)[O-])c3)cc2c1`, the IC50 in data set [1] was found to be 85.6 nM. The inhibition in data set [2] was determined as 68.4%.

In data set [2], `COc1ccc2sc(C(=O)NNc3ccc(Cl)cc3)cc2c1` had an inhibition of 12.8%.

As for `COc1ccc2sc(C(=O)N(C)N(C)c3cccc(Br)n3)cc2c1`, the IC50 in data set [1] is 12.9 nM. The compound also registered an inhibition in [2] of 77.2%.

As for `COc1ccc2sc(C(=O)NNc3ccccc3)cc2c1`, the inhibition in data set [2] amounted to 38.1%.

`COc1ccc2sc(C(=O)NNc3cccc(N)c3)cc2c1` showed an inhibition in data set [2] of 49%.

As for `COc1ccc2sc(C(=O)N(C)N(C)c3cc(F)cc(F)c3)cc2c1`, the GI50 in [4] was above 15000 nM. The IC50 in [1] came to 24.5 nM. In addition, the inhibition in [2] worked out at 85%. Moreover, the inhibition at 48 h, 15 µM in data set [8] is 20.8%.

As to `COc1ccc2sc(C(=O)NNc3ccc(F)c(F)c3)cc2c1`, the inhibition in [2] stood at 17.7%.

The compound `COc1ccc2sc(C(=O)NNc3ccccc3Br)cc2c1` yielded an inhibition in data set [2] of 6.2%.

`COc1ccc2sc(C(=O)NNc3ccc(Br)cc3)cc2c1` gave an inhibition in data set [2] of 21.3%.

On to `COc1ccc2sc(C(=O)NNc3ccc(C)cc3C)cc2c1`, for which the inhibition in data set [2] is 0%.

Consider `COc1ccc2sc(C(=O)NNc3ccccn3)cc2c1`, for which the inhibition in data set [2] was 28.9%.

For the compound `COc1ccc2sc(C(=O)NNc3cc(F)cc(F)c3)cc2c1`, the Activity entry in data set [3] is reported as “Non-Toxic”. In data set [4], the GI50 came to 8900 nM. The IC50 is 21.1 nM in data set [9] and 201 nM in data set [10]. For the same compound, the half-life at 0.3 µM in [7] turned out to be 56.9 min.

In data set [2], `COc1ccc2sc(C(=O)NNc3c(Cl)cccc3Cl)cc2c1` gave an inhibition of 0%.

With `COc1ccc2sc(C(=O)NNc3cccc(Br)n3)cc2c1`, in data set [4], the GI50 turned out to be 11400 nM.

`COc1ccc2sc(C(=O)NNc3ccccc3Cl)cc2c1` had an inhibition in [2] of 29.5%.

For `COc1ccc2sc(C(=O)NNc3nc(OC)ncc3F)cc2c1`, the inhibition in data set [2] came out at 0%.

For `COc1ccc2sc(C(=O)NNc3ccc([N+](=O)[O-])cc3)cc2c1`, the inhibition in data set [2] was 7.2%.

Regarding `COc1ccc2sc(C(=O)N(C)Nc3cccc(Cl)c3)cc2c1`, in data set [3], the Activity entry is on record as “Non-Toxic”. The GI50 in data set [4] was above 15000 nM.

As to `CNc1ncc2cc3cnccc3c([N+](=O)[O-])c2n1`, the Selectivity Index in data set [6] came to 34.

Turning to `COc1ccc2sc(C(=O)NNc3ccc(Cl)cc3Cl)cc2c1`, the inhibition in data set [2] worked out at 30.4%.

For `CC(C)(C)c1ccc(C(=O)Nc2cn3cc(-c4cn[nH]c4)ccc3n2)cn1`, the Ratio IC50 in [11] was determined as 2.2.

As to `COc1ccc2sc(C(=O)N(C)N(C)c3cccc(Br)c3)cc2c1`, in data set [1], the IC50 turned out to be 73.8 nM. Besides, the inhibition in data set [2] came out at 68.1%.

Consider `Cn1cc(-c2ccc3occ(-c4cccc(-c5ccncc5)c4)c3n2)cn1`, for which the Ratio IC50 in [11] was 2.5. The Selectivity Index in data set [6] turned out to be 26.6.

On to `COc1ccc2sc(C(=O)NNc3cccc(C(F)(F)F)c3)cc2c1`, for which, in data set [1], the concentration for half-maximal inhibition (IC50) turned out to be 73 nM. The inhibition in [2] worked out at 63%.

For the compound `COc1ccc2sc(C(=O)NNc3cc(Cl)cc(Cl)c3)cc2c1`, the GI50 in data set [4] stood at 3400 nM. Besides, the figures for the IC50 in [9] and in data set [10] were 13.4 nM and 191 nM, respectively. Further, the half-life at 0.3 µM in [7] worked out at 385 min.

As for `COc1ccc2sc(C(=O)N(C)Cc3cc(F)cc(F)c3)cc2c1`, the GI50 in [4] is 1780 nM; in data set [12] it was 430 nM. Besides, in [5], the half-life was determined as 10 min. Also, the half-life at 0.3 µM in [7] is 9.9 min. Moreover, the inhibition at 48 h, 15 µM in [8] was found to be 9.16%.

`COc1ccc2sc(C(=O)NNc3ccccc3F)cc2c1` showed an inhibition in data set [2] of 18.6%.

Values taken from ChEMBL document CHEMBL5346870, “Discovery of novel 5-methoxybenzothiophene hydrazides as metabolically stable Clk1 inhibitors with high potency and unprecedented Clk1 isoenzyme selectivity” (Eur J Med Chem, 2023).
